Read-outs that look alike come from different tables or passages of the source.
Target: TLR2 (Homo sapiens, UniProt O60603)
Experiment: In vitro TLR2 functional bioassay (NF-κB luciferase, HEK293/hTLR2 cells)
Format: cell-based
Design: host or cells: HEK293 stably transfected with pUNO-hTLR2, transiently transfected with the pNifty-Luc reporter
[1] = dose-response 0.001 ng/mL to 10 μg/mL, read-out: TLR2 Agonist Activity EC50
[2] = log(agonist) vs. normalized response, doses 0.01 ng/mL to 1 μg/mL, read-out: EC50

Sequence of TLR2 (O60603 21-784): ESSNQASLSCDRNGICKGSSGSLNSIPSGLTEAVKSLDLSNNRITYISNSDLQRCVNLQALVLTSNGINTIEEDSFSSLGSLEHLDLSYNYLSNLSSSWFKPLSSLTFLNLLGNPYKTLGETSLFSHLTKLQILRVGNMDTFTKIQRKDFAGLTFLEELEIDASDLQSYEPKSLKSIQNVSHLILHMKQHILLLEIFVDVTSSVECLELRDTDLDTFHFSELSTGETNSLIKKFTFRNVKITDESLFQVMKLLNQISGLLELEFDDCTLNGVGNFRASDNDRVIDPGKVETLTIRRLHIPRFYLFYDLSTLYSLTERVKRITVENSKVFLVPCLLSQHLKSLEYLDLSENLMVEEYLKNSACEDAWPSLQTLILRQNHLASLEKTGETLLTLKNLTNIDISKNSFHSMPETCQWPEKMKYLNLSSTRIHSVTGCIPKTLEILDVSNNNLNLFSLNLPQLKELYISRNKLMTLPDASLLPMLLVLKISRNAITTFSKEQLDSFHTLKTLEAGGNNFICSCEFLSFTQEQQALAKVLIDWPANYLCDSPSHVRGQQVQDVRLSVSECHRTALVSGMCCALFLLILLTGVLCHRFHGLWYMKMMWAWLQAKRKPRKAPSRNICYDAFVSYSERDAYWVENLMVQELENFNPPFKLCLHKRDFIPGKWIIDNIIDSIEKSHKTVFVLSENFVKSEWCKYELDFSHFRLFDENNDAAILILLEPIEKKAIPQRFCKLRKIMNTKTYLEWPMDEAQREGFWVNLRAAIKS
Sequence of TLR2 (Q9Y2C9 32-796 partner): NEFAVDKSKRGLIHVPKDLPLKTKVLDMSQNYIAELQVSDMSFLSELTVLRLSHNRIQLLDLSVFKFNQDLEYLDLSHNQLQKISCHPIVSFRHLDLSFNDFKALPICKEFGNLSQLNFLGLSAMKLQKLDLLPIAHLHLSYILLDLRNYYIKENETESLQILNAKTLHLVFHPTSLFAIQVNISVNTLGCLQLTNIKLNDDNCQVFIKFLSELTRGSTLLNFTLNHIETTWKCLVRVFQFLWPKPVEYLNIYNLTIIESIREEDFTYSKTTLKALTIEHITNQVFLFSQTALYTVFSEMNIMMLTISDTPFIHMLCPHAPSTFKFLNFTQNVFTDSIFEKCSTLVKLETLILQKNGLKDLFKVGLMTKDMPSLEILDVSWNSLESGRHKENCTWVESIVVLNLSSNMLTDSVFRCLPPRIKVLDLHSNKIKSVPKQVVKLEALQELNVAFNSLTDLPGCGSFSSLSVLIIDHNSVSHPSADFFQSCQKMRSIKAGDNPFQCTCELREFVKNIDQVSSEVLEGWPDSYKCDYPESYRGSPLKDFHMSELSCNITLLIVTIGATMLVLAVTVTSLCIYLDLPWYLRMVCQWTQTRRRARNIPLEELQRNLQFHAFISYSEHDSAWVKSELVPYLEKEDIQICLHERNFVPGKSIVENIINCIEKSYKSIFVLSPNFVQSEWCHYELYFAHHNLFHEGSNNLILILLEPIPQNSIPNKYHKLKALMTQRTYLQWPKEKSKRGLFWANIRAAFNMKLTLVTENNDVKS

Row | Compound | EC50 [1] [nM] | EC50 [2] [nM] | luciferase activity relative to cells incubated with no ligand (24 h post ligand stimulation, n=6) [fold]
1 | CCCCCCCCCCCCCCCC(=O)OCC(CSC[C@H](N)C(=O)N[C@@H](CO)C(=O)N[C@@H](CCCCN)C(=O)N[C@@H](CCCCN)C(=O)N[C@@H](CCCCN)C(=O)N[C@@H](CCCCN)C(=O)O)OC(=O)CCCCCCCCCCCCCCC (mixture of isomers) [Pam2CSK4, S-[2,3-bis(palmitoyloxy)-(2RS)-propyl]-[R]-cysteinyl-[S]-seryl-[S]-lysyl-[S]-lysyl-[S]-lysyl-[S]-lysine, reference compound] | 3.7 | 3.66 | –
2 | CCCCCCCCCCCCCCCC(=O)N[C@@H](CSCC(COC(=O)CCCCCCCCCCCCCCC)OC(=O)CCCCCCCCCCCCCCC)C(=O)N[C@@H](CO)C(=O)N[C@@H](CCCCN)C(=O)N[C@@H](CCCCN)C(=O)N[C@@H](CCCCN)C(=O)N[C@@H](CCCCN)C(=O)O (mixture of isomers) [Pam3CSK4, N-Palmitoyl-S-[2,3-bis(palmitoyloxy)-(2RS)-propyl]-[R]-cysteinyl-[S]-seryl-[S]-lysyl-[S]-lysyl-[S]-lysyl-[S]-lysine, reference compound] | 23 | 22.5 | 50

— patent US11458212B2, “Molecular imaging of cancer cells in vivo” (H. Lee Moffitt Cancer Center and Research Institute, Inc., priority 2011, dated 2022)
